Earlier results, collected in paper PMC2895553 (Journal of the American Chemical Society, 2010).

Tested on: αvβ3 integrin

## cyclo(-Arg-Gly-Asp-DPhe-(Me)Val-] [Cilengitide]
  activity as inhibitor for the αvβ3 integrin: 0.5 nM
